Reference: patent publication US20220402925A1, “COMPOUNDS AND METHODS FOR THE TREATMENT OF CYSTIC FIBROSIS” (Flatley Discovery Lab, LLC, priority 2019, published 2022)

Target: T1, F508del CFTR (Homo sapiens, UniProt P13569, DEL508-508)
T1 construct: Primary CF airway epithelial cells were obtained from the UNC Cystic Fibrosis Tissue Procurement and Cell Culture Core; host or cells: primary CF airway epithelial cells
Assay: Equivalent current assay in primary CF airway epithelial cells (Corrector Activity, NAUC normalized to 3 μM VX809)
Format: cell-based
Details: NAUC as % of positive control (VX-809)
Procedure, shortened: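 Readout is NAUC: current area from forskolin/potentiator addition until CFTR-172, minus vehicle, relative to 3 μM VX809 (=1.0). Cells were primary CF epithelia at air-liquid interface ≥4 weeks, given basolateral compound for 24 h at 37° C; median of n≥4 replicates, sigmoid fit with nH fixed at 1.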

T1 sequence (P13569 with tags, fused parts or gaps DEL508-508): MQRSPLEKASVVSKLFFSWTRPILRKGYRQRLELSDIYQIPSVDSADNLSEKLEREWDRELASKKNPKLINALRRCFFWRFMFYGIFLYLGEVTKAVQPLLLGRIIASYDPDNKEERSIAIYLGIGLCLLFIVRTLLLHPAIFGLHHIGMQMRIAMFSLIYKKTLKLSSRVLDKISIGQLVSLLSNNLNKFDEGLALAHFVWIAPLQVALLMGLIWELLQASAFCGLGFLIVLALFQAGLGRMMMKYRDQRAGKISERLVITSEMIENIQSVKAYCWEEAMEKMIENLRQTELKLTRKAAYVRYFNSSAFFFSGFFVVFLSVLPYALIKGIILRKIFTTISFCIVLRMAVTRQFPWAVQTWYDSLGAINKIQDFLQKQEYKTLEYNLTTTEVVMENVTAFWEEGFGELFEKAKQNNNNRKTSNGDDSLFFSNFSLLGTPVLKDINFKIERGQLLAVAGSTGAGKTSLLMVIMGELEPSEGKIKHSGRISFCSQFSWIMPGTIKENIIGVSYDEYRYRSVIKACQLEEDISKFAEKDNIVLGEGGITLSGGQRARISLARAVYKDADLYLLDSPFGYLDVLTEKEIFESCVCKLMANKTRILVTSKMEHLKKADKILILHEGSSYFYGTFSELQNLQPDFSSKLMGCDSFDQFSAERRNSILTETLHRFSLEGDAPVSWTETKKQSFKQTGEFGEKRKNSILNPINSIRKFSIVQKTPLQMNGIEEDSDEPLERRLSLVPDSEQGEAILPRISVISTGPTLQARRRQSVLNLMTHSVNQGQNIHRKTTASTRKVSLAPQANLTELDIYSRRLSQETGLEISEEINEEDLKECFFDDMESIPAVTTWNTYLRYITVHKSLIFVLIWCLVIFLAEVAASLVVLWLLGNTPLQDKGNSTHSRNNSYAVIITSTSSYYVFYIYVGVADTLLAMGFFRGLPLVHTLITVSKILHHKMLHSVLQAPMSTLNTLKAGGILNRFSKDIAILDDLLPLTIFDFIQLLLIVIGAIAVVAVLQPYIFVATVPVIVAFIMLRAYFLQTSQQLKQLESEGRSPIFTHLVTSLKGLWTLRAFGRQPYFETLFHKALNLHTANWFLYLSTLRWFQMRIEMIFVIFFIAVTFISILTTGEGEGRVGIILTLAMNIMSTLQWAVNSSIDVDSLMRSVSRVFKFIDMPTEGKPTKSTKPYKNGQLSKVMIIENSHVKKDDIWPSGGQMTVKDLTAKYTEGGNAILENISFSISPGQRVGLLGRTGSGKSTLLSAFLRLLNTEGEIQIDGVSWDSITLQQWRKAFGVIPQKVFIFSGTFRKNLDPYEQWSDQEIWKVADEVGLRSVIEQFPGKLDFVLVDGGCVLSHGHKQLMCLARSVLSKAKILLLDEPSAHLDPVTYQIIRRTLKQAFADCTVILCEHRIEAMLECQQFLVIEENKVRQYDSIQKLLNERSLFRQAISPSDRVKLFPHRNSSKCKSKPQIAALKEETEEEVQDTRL

Corr Activity (NAUC) | Compound
+++ (NAUC>70% of positive control) | N#Cc1cccc(-c2nn(CC(=O)N(c3ccc4c(c3)OC(F)(F)O4)C3CC3)c(=O)c3nc[nH]c23)c1 [Example 372]
+++ (NAUC>70% of positive control) | O=C(Cn1nc(-c2cccc(F)c2)c2[nH]cnc2c1=O)N1CCCc2c1ccc1c2OC(F)(F)O1 [Example 373]
+++ (NAUC>70% of positive control) | O=C(Cn1nc(-c2cccc(Cl)c2)c2[nH]cnc2c1=O)N1CCCc2c1ccc1c2OC(F)(F)O1 [Example 374]
+++ (NAUC>70% of positive control) | N#Cc1cccc(-c2nn(CC(=O)N3CCCc4c3ccc3c4OC(F)(F)O3)c(=O)c3nc[nH]c23)c1 [Example 375]
+ (NAUC<40% of positive control) | CC(C)Oc1cc(-c2nn(CC(=O)N(c3ccc4c(c3)OC(F)(F)O4)C3CC3)c(=O)c3nc[nH]c23)cc(C(F)(F)F)c1 [Example 377]
++ (NAUC 70-40% of positive control) | O=C(Cn1nc(-c2cc(F)cc(Cl)c2)c2[nH]cnc2c1=O)N(c1ccc2c(c1)OC(F)(F)O2)C1CC1 [Example 378]
++ (NAUC 70-40% of positive control) | COc1cc(Cl)cc(-c2nn(CC(=O)N(c3ccc4c(c3)OC(F)(F)O4)C3CC3)c(=O)c3nc[nH]c23)c1 [Example 379]
++ (NAUC 70-40% of positive control) | O=C(Cn1nc(-c2cc(F)cc(F)c2)c2[nH]cnc2c1=O)N(c1ccc2c(c1)OC(F)(F)O2)C1CC1 [Example 380]
+ (NAUC<40% of positive control) | COc1cc(OC)cc(-c2nn(CC(=O)N(c3ccc4c(c3)OC(F)(F)O4)C3CC3)c(=O)c3nc[nH]c23)c1 [Example 381]
+ (NAUC<40% of positive control) | O=C(Cn1nc(-c2cc(C(F)(F)F)cc(C(F)(F)F)c2)c2[nH]cnc2c1=O)N(c1ccc2c(c1)OC(F)(F)O2)C1CC1 [Example 382]
++ (NAUC 70-40% of positive control) | COc1cc(F)cc(-c2nn(CC(=O)N(c3ccc4c(c3)OC(F)(F)O4)C3CC3)c(=O)c3nc[nH]c23)c1 [Example 383]
++ (NAUC 70-40% of positive control) | CC(C)COc1cc(F)cc(-c2nn(CC(=O)N(c3ccc4c(c3)OC(F)(F)O4)C3CC3)c(=O)c3nc[nH]c23)c1 [Example 384]
++ (NAUC 70-40% of positive control) | Cc1cc(F)cc(-c2nn(CC(=O)N(c3ccc4c(c3)OC(F)(F)O4)C3CC3)c(=O)c3nc[nH]c23)c1 [Example 385]
+ (NAUC<40% of positive control) | COc1cc(-c2nn(CC(=O)N(c3ccc4c(c3)OC(F)(F)O4)C3CC3)c(=O)c3nc[nH]c23)cc(C(F)(F)F)c1 [Example 387]
+ (NAUC<40% of positive control) | COC(=O)c1cc(Cl)cc(-c2nn(CC(=O)N(c3ccc4c(c3)OC(F)(F)O4)C3CC3)c(=O)c3nc[nH]c23)c1 [Example 390]
++ (NAUC 70-40% of positive control) | O=C(Cn1nc(-c2cc(F)cc(C(F)(F)F)c2)c2[nH]cnc2c1=O)N(c1ccc2c(c1)OC(F)(F)O2)C1CC1 [Example 391]
+++ (NAUC>70% of positive control) | Cc1cc(Cl)cc(-c2nn(CC(=O)N(c3ccc4c(c3)OC(F)(F)O4)C3CC3)c(=O)c3nc[nH]c23)c1 [Example 392]
++ (NAUC 70-40% of positive control) | O=C(Cn1nc(-c2cc(F)cc(OCC(F)(F)F)c2)c2[nH]cnc2c1=O)N(c1ccc2c(c1)OC(F)(F)O2)C1CC1 [Example 393]
+ (NAUC<40% of positive control) | COc1cc(C)cc(-c2nn(CC(=O)N(c3ccc4c(c3)OC(F)(F)O4)C3CC3)c(=O)c3nc[nH]c23)c1 [Example 395]
+++ (NAUC>70% of positive control) | O=C(Cn1nc(-c2cc(Cl)cc(OCc3ccccc3)c2)c2[nH]cnc2c1=O)N(c1ccc2c(c1)OC(F)(F)O2)C1CC1 [Example 396]
+ (NAUC<40% of positive control) | COc1cc(OC(F)(F)F)cc(-c2nn(CC(=O)N(c3ccc4c(c3)OC(F)(F)O4)C3CC3)c(=O)c3nc[nH]c23)c1 [Example 397]
